Test results taken from paper PMC4806279, “Metabolism and Metabolic Inhibition of Xanthotoxol in Human Liver Microsomes” (Evidence-based Complementary and Alternative Medicine : eCAM, 2016).

Experiments:
[1] = test system: cytochrome P450s (CYPs); assay: Inhibition of xanthotoxol metabolite production in HLMs by a nonspecific CYP inhibitor; assay type: in vitro ADME, human; conditions: xanthotoxol as substrate, 500 μM ABT
Protocol: Inhibition study was conducted using the above incubation system consisting of liver microsomes, NADPH-generating system, probe substrate at the concentration of about K m value, and xanthotoxol (or the control inhibitor). The concentrations of positive inhibitors used were as follows: 10 μM furafylline for CYP1A2, 2.5 μM 8-methoxypsoralen for CYP2A6, 10 μM quercetin for CYP2C8, 10 μM sulfaphenazole for CYP2C9, 10 μM quinidine for CYP2D6, 50 μM clomethiazole for CYP2E1, 20 μM omeprazole for CYP2C19, 1 μM ketoconazole for CYP3A4, and 500 μM ABT for broad CYP450s. […]

[2] = assay type: in vitro ADME; conditions: human
Description: The following equations were used to predict the xanthotoxol clearance in human:(2) CLint in vitro=Vmax/Km,CLint in vivo=CLint in vitro·SF,CLH=QH·fu·CLint in vivo/QH+fu·CLint in vivo, where SF (scaling factor) represents the milligrams of microsomal protein per gram of liver multiplied by the grams of liver weight; CLint is the intrinsic metabolic clearance; CLH is hepatic clearance; f u is the free fraction in blood (there are no data of xanthotoxol; here f u was arbitrarily proposed to be 1); Q H is the hepatic blood flow. The hepatic clearance of xanthotoxol was calculated using (2), and physiological parameters in human were described as follows: microsomal protein per gram of liver, liver weight per kilogram of body, and liver blood flow for human were 48.8 mg, 25.7 g, and 20.7 mL·min^−1·kg^−1, respectively.

[3] = in vitro; assay type: in vitro ADME; conditions: human
Protocol: (§1) The optimal conditions for microsomal incubation were described previously. The incubation mixture, with a total volume of 200 μL, consisted of 100 mM potassium phosphate buffer (pH 7.4), an NADPH-generating system (10 mM glucose 6-phosphate, 1 unit/mL of glucose 6-phosphate dehydrogenase, and 4 mM MgCl2), liver microsomes (0.3 mg/mL), or recombinant CYP450s (15 nM). […] After a 5 min preincubation at 37°C, the NADP^+ (1 mM, 20 μL) was added into the mixture to initiate the reaction. The reaction was terminated by the addition of methanol (200 μL) with internal standard. The mixture was kept on ice until it was centrifuged at 20 000 ×g for 10 min at 4°C. Aliquots of supernatants were stored at −40°C until analysis. Control incubations without NADPH or without substrate or without microsomes were carried out to ensure that the formation of metabolites was microsomes and NADPH dependent. All incubations throughout the study were carried out in at least three independent experiments with standard deviations (SD) generally below 10%.
To estimate kinetic parameters of xanthotoxol and make sure that the formations of metabolites were in the linear range of both reaction time and the concentration of microsomes, xanthotoxol (0.25–200 μM) was incubated with pooled HLMs for 30 min. Reaction velocities and substrate concentrations were used to calculate the apparent K m and V max values according to nonlinear regression from the Michaelis-Menten equation (see (1)). CLint was calculated as V max/K m. In addition, the result was graphically represented on Eadie-Hofstee plots (velocities versus ratios of velocities to substrate concentrations) to determine whether the metabolism was monophasic or biphasic. Consider(1) V=Vmax·S/Km+S, where V max was the maximum reaction velocity, K m was the Michaelis constant that represented the substrate concentration at which the velocity was half of V max, V was the reaction velocity, and [S] was the substrate concentration.

[4] = molecular target: T1, CYP2C8 (Homo sapiens, UniProt P10632); assay type: in vitro ADME; conditions: 100 μM, pH 7.4
T1 construct: The HLMs were prepared from eleven individual human donor livers; tissue Research Institute for Liver Disease Co. (Shanghai, China); host or cells: human liver microsomes, pool of eleven donors
T1 sequence (P10632 1-490): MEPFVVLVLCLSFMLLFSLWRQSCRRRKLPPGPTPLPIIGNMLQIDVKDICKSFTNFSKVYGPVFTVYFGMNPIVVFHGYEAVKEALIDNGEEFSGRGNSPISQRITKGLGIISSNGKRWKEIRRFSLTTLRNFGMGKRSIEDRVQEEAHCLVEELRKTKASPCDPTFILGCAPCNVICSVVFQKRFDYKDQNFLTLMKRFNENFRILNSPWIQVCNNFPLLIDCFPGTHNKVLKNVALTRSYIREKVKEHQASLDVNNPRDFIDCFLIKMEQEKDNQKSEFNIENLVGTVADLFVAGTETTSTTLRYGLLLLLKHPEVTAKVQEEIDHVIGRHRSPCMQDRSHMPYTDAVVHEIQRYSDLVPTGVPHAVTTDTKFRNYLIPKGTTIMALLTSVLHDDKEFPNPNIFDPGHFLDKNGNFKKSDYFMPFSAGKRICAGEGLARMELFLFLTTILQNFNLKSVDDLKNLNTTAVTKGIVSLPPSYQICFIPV
Protocol: (§2) Liver microsomes from human (HLMs) used in this study were provided by the Research Institute for Liver Disease Co. (Shanghai, China). The HLMs were prepared from eleven individual human donor livers. Protein concentration and microsomes activities of CYP2C19, CYP2A6, CYP2C8, CYP2D6, CYP1A2, CYP2C9, CYP2E1, and CYP3A4 had been previously characterized by the Research Institute for Liver Disease Co.
(§3) HLMs phenacetin o-deethylation, coumarin 7-hydroxylation, paclitaxel 6α-hydroxylation, diclofenac 4′-hydroxylation, dextromethorphan o-demethylation, chlorzoxazone 6-hydroxylation, testosterone 6β-hydroxylation, and S-mephenytoin 4′-hydroxylation activities were utilized as selective markers for CYP1A2, CYP2A6, CYP2C8, CYP2C9, CYP2D6, CYP2E1, CYP3A4, and CYP2C19.
as §1
(§4) Inhibition study was conducted using the above incubation system consisting of liver microsomes, NADPH-generating system, probe substrate at the concentration of about K m value, and xanthotoxol (or the control inhibitor). […]

[5] = molecular target: T2, CYP2A6 (Homo sapiens, UniProt P11509); assay type: in vitro ADME; conditions: 100 μM, pH 7.4
T2 construct: The HLMs were prepared from eleven individual human donor livers; tissue Research Institute for Liver Disease Co. (Shanghai, China); host or cells: human liver microsomes, pool of eleven donors
T2 sequence (P11509 1-494): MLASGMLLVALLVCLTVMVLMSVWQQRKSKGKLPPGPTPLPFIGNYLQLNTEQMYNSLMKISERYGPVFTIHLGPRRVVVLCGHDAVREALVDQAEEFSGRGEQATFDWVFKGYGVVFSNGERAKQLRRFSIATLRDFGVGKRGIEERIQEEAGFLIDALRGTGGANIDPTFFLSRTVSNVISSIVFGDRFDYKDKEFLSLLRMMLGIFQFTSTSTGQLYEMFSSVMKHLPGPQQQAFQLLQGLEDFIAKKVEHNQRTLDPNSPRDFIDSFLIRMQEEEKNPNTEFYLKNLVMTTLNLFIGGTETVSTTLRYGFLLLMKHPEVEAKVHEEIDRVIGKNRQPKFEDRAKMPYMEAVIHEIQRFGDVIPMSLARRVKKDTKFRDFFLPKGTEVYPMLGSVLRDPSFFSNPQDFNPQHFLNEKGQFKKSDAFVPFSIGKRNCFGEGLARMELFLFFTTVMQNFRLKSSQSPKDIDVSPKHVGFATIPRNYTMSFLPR
Protocol: as §2, §3, §1, §4

[6] = molecular target: T3, CYP2E1 (Homo sapiens, UniProt P05181); assay type: in vitro ADME; conditions: 100 μM, pH 7.4
T3 construct: The HLMs were prepared from eleven individual human donor livers; tissue Research Institute for Liver Disease Co. (Shanghai, China); host or cells: human liver microsomes, pool of eleven donors
T3 sequence (P05181 whole entry): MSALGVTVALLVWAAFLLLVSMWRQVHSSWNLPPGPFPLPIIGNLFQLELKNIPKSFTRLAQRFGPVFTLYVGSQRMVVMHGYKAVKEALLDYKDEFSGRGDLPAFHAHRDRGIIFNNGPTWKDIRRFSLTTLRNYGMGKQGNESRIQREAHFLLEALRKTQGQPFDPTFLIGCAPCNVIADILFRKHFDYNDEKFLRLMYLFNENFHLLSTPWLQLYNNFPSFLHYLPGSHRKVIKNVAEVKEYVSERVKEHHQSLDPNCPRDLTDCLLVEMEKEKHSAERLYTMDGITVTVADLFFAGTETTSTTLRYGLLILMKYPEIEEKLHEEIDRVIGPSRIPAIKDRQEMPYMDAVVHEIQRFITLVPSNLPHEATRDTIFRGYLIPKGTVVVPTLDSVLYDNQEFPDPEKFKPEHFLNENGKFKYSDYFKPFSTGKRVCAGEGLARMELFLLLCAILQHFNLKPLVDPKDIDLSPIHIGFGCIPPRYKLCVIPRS
Protocol: as §2, §3, §1, §4

[7] = molecular target: T3, CYP2E1; assay type: in vitro ADME; conditions: recombinant enzyme, 30 min, 10 mM, pH 7.4
Protocol: as §1
The enzymes involved in the xanthotoxol metabolism were investigated using cDNA-expressed human P450 isoforms including CYP3A4, CYP2D6, CYP2E1, CYP2C9, CYP2C19, and CYP1A2. The incubation for each isoenzyme was carried out as described for the liver microsomal study. […]

[8] = molecular target: T4, CYP3A4 (Homo sapiens, UniProt P08684); assay: Inhibition of testosterone 6β-hydroxylation in human liver microsomes; assay type: in vitro ADME
T4 construct: The HLMs were prepared from eleven individual human donor livers; tissue Research Institute for Liver Disease Co. (Shanghai, China); host or cells: human liver microsomes, pool of eleven donors
T4 sequence (P08684 whole entry): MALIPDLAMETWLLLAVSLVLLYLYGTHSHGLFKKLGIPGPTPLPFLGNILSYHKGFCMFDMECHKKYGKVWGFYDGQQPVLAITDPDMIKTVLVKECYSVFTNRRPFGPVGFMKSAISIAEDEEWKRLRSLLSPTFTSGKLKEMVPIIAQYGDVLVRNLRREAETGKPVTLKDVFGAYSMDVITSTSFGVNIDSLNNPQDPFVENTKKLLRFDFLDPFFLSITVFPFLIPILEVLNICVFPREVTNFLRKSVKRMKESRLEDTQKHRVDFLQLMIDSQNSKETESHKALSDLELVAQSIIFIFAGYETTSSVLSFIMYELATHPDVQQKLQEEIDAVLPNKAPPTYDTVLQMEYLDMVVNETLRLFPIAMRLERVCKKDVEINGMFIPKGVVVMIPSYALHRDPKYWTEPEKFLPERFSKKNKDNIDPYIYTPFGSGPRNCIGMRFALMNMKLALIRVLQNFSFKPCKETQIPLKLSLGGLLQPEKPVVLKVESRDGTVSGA
Protocol: as §2, §3, §1, §4

[9] = molecular target: T5, CYP1A2 (Homo sapiens, UniProt P05177); assay: Inhibition of phenacetin o-deethylation in human liver microsomes; assay type: in vitro ADME
T5 construct: The HLMs were prepared from eleven individual human donor livers; tissue Research Institute for Liver Disease Co. (Shanghai, China); host or cells: human liver microsomes, pool of eleven donors
T5 sequence (P05177 1-516): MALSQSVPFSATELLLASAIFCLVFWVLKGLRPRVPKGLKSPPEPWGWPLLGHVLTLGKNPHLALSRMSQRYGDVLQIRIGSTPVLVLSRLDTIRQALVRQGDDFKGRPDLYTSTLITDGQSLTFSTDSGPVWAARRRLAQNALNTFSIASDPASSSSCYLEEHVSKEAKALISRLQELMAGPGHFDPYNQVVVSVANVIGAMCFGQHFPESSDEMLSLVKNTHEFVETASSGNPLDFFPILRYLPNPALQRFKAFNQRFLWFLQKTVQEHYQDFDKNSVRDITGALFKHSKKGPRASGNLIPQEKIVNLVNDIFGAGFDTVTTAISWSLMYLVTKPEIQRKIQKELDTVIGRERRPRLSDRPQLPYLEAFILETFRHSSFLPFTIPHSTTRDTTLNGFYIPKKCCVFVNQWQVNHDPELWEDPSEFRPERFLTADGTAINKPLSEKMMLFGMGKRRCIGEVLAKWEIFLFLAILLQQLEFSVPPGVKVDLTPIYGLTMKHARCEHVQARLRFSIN
Protocol: as §2, §3, §1, §4

[10] = HLMs, Lineweaver-Burk and Dixon plots

SMILES | inhibition against metabolite production [1] | hepatic clearance (CLH) [2] | percentage of CLH versus hepatic blood flow (QH)% [2] | clearance classification ([2]; microsomes) | Vmax of xanthotoxol metabolism ([3]; 30 min, pH 7.4) | Intrinsic clearance (CLint) ([3]; microsomes, pH 7.4) | microsomal CLint ([3]; microsomes, pH 7.4, Intrinsic clearance (CLint)) | Km at 30 min ([3]; pH 7.4) | inhibited the activity of CYP2C8 [4] | inhibited the activity of CYP2A6 [5] | inhibited the activity of CYP2E1 [6] | amount of metabolite M generated compared to CYP1A2 level [7] | IC50 [8] | Ki [8] | type of inhibition of CYP3A4 [8, 10] | IC50 [9] | Ki [9] | type of inhibition of CYP1A2 [9, 10]
Nn1nnc2ccccc21 [Aminobenzotriazole (ABT), 1-aminobenzotriazole] | potent inhibition |  |  |  |  |  |  |  |  |  |  |  |  |  |  |  |  | 
O=c1ccc2cc3ccoc3c(O)c2o1 [xanthotoxol, Xanthotoxol] |  | 15.91 mL·min^−1·kg^−1 body weight | 76.8% | high-clearance drug | 0.55 nmol/min/mg | 65 µL/min/mg | 60 µL/min/mg | 8.46 µM | 52.1% | 82.1% | 25.9% | 7.3% | 7.43 µM | 2.22 µM | noncompetitive | 27.8 µM | 21.1 µM | noncompetitive
